Laboratory results taken from US20110275517A1, “SYNERGISTIC HERBICIDAL COMPOSITION CONTAINING A DICAMBA DERIVATIVE AND A […]” (DOW AGROSCIENCES LLC, priority 2010, published 2011).

What was measured:
Type in all cases: in vivo
Conditions in all cases: rated after 14-21 d
[1] = system: CHEAL GLY-RES (Glyphosate-resistant Chenopodium album); assay: Greenhouse postemergence foliar herbicidal test on CHEAL GLY-RES
Protocol: (§1) Seeds of the desired test plant species were planted in Sun Gro MetroMix 306 planting mixture, which typically has a pH of 6.0 to 6.8 and an organic matter content of about 30 percent, in plastic pots with a surface area of 103.2 square centimeters (cm^2). […] The plants were grown for 7-36 days (d) in a greenhouse with an approximate 16 hour (h) photoperiod which was maintained at about 28° C. during the day and 26° C. during the night. Nutrients and water were added on a regular basis and supplemental lighting was provided with overhead metal halide 1000-Watt lamps as necessary. The plants were employed for testing when they reached the second or third true leaf stage.
(§2) Treatments consisted of Banvel™ (dicamba dimethylamine salt) and Durango™ herbicide (glyphosate dimethylamine salt) alone and in combinations. An aliquot of
(§3) Banvel^TM (dicamba dimethylamine salt) was placed in 25 milliliter (mL) glass vials and diluted in a volume of water to obtain 1.5 milligrams (mg) active ingredient (ai)/mL concentrated solutions. Subsequent concentrations of Banvel™ (dicamba dimethylamine salt) were obtained by dilution with an equal volume of water. Spray solutions of Durango™ herbicide (glyphosate dimethylamine salt) were prepared following the aforementioned procedure. An aliquot of Durango™ herbicide (glyphosate dimethylamine salt) was placed in 25 milliter (mL) glass vials and mixed in a volume of 100:2 w/w water/ammonium sulfate (AMS) dilution solution to obtain 1.5 milligrams (mg) active ingredient (ai)/mL concentrated solutions.
(§4) Compound requirements are based upon a 12 mL application volume at a rate of 187 liters per hectare (L/ha). Spray solutions of the Banvel^TM (dicamba dimethylamine salt) and Durango™ herbicide (glyphosate dimethylamine salt) were prepared by adding the concentrated solutions to the appropriate amount of dilution solution to form 12 mL spray solution with active ingredients in combination. Banvel™ (dicamba dimethylamine salt) and Durango™ herbicide (glyphosate dimethylamine salt) alone and in combinations were applied to the foliage of plant material with an overhead Mandel track sprayer equipped with 8002E nozzles calibrated to deliver 187 L/ha over an application area of 0.503 square meters (m^2) at a spray height of 18 inches (43 cm) above average plant canopy. Control plants were sprayed in the same manner with the solvent blank.
(§5) The treated plants and control plants were placed in a greenhouse as described above and watered by sub-irrigation to prevent wash-off of the test compounds. After 14-21 d, the condition of the test plants as compared with that of the control plants was determined visually and scored on a scale of 0 to 100 percent where 0 corresponds to no injury and 100 corresponds to complete kill.
(§6) Colby's equation was used to determine the herbicidal effects expected from the mixtures (Colby, S. R. 1967. Calculation of the synergistic and antagonistic response of herbicide combinations. Weeds 15:20-22.).
(§7) The following equation was used to calculate the expected activity of mixtures containing two active ingredients, A and B:
(§8) A=observed efficacy of active ingredient A at the same concentration as used in the mixture;
(§9) B=observed efficacy of active ingredient B at the same concentration as used in the mixture.

[2] = system: ERICA GLY-RES (Glyphosate-resistant Conyza canadensis); assay: Greenhouse postemergence foliar herbicidal test on ERICA GLY-RES
Protocol: as §1, §2, §3, §4, §5, §6, §7, §8, §9

[3] = system: COMBE = Commelina benghalensis (Dayflower); assay: Greenhouse postemergence foliar herbicidal test on COMBE
Protocol: as §1, §2, §3, §4, §5, §6, §7, §8, §9

[4] = system: ERICA = Conyza canadensis (horseweed/marestail); assay: Greenhouse postemergence foliar herbicidal test on ERICA
Protocol: as §1, §2, §3, §4, §5, §6, §7, §8, §9

[5] = system: CHEAL = Chenopodium album (Common lambsquarters/fat hen); assay: Greenhouse postemergence foliar herbicidal test on CHEAL
Protocol: as §1, §2, §3, §4, §5, §6, §7, §8, §9

| Structure (SMILES) | Herbicidal effect, observed (Ob), visual injury 0-100 ([1]; applied alone at 35 g/ha) [%] | Herbicidal effect, observed (Ob), visual injury 0-100 ([1]; applied alone at 70 g/ha) [%] | Herbicidal effect, observed (Ob), visual injury 0-100 ([1]; applied alone at 140 g/ha) [%] | Herbicidal effect, observed (Ob), visual injury 0-100 ([1]; applied alone at 280 g/ha) [%] | Herbicidal effect, observed (Ob), visual injury 0-100 ([2]; applied alone at 35 g/ha) [%] | Herbicidal effect, observed (Ob), visual injury 0-100 ([2]; applied alone at 70 g/ha) [%] | Herbicidal effect, observed (Ob), visual injury 0-100 ([2]; applied alone at 140 g/ha) [%] | Herbicidal effect, observed (Ob), visual injury 0-100 ([2]; applied alone at 280 g/ha) [%] | Herbicidal effect, observed (Ob), visual injury 0-100 ([3]; applied alone at 35 g/ha) [%] | Herbicidal effect, observed (Ob), visual injury 0-100 ([3]; applied alone at 70 g/ha) [%] | Herbicidal effect, observed (Ob), visual injury 0-100 ([3]; applied alone at 140 g/ha) [%] | Herbicidal effect, observed (Ob), visual injury 0-100 ([3]; applied alone at 280 g/ha) [%] | Herbicidal effect, observed (Ob), visual injury 0-100 ([4]; applied alone at 35 g/ha) [%] | Herbicidal effect, observed (Ob), visual injury 0-100 ([4]; applied alone at 70 g/ha) [%] | Herbicidal effect, observed (Ob), visual injury 0-100 ([4]; applied alone at 140 g/ha) [%] | Herbicidal effect, observed (Ob), visual injury 0-100 ([4]; applied alone at 280 g/ha) [%] | Herbicidal effect, observed (Ob), visual injury 0-100 ([5]; applied alone at 35 g/ha) [%] | Herbicidal effect, observed (Ob), visual injury 0-100 ([5]; applied alone at 70 g/ha) [%] | Herbicidal effect, observed (Ob), visual injury 0-100 ([5]; applied alone at 140 g/ha) [%] | Herbicidal effect, observed (Ob), visual injury 0-100 ([5]; applied alone at 280 g/ha) [%] |
| --- | --- | --- | --- | --- | --- | --- | --- | --- | --- | --- | --- | --- | --- | --- | --- | --- | --- | --- | --- | --- |
| O=C(O)CNCP(=O)(O)O [Glyphosate + AMS, N-(phosphonomethyl)glycine] | 9 | 9 | 41 | 51 | 0 | 0 | 3 | 7 | 7 | 27 | 49 | 58 | 47 | 55 | 72 | 78 | 8 | 12 | 57 | 66 |
| COc1c(Cl)ccc(Cl)c1C(=O)O [Dicamba, 3,6-dichloro-2-methoxybenzoic acid] | 33 | 48 | 64 | 83 | 62 | 83 | 95 | 97 | 18 | 25 | 43 | 42 | 62 | 81 | 93 | 97 | 34 | 40 | 52 | 61 |
